Assay results as given in PubChem BioAssay AID2393 (NMMLSC, 2010).
Activity calls are given as the source filed them.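 The calls were made as follows: active = none, because compounds meeting the potency rule were filed inconclusive for hitting several proteins; inconclusive = EC50 under 20 µM with over 15% binding change; inactive = the rest.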

Biological target: Ras-related C3 botulinum toxin substrate 1 (Homo sapiens) (UniProt P63000)
Assay: small GTPase panel, fluorescent GTP binding blockade – biochemical, Mg buffer, constant GTP, RhoA, Rac1, Cdc42, mechanism study for Ras-family GTPase inhibitor project, profiling panel (AID 2393);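 as to EC50: EC50 marks half change in GTP binding and may reflect gain or loss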
Details: GST-GTPase beads, BODIPY-GTP binding, flow cytometry, Rac1WT

SMILES	EC50
COc1ccc(-c2noc(CCC(=O)N3CCC(c4cc(C)ccc4C)CC3)n2)cc1	11.9 µM
COc1ccc(C2CC(c3ccsc3)=NN2c2ccc(S(N)(=O)=O)cc2)cc1 (stereo not given)	inactive
COc1ccc(-c2cc(CCC(=O)N3CCN(c4cc(C)ccc4C)CC3)on2)cc1	2.76 µM
Cc1ccc(C2CC(c3ccccc3)=NN2c2ccc(S(N)(=O)=O)cc2)cc1 (stereo not given)	inactive
NS(=O)(=O)c1ccc(N2N=C(c3ccccc3)CC2c2ccc(Cl)cc2)cc1 (stereo not given)	inactive
COc1ccc(-c2noc(CCC(=O)N3CCN(c4cc(C)ccc4C)CC3)n2)cc1	2.37 µM

Same assay, conditions: GST-GTPase beads, BODIPY-GTP binding, flow cytometry, Rac1WT, at 100 µM (top of the series)

SMILES	GTP binding remaining (% of DMSO)
Cc1cccc(C2CC(c3ccccc3)=NN2c2ccc(S(N)(=O)=O)cc2)c1 (stereo not given)	inactive
Cc1ccccc1C1CC(c2ccccc2)=NN1c1ccc(S(N)(=O)=O)cc1 (stereo not given)	inactive
COc1ccc(C2CC(c3ccccc3C)=NN2c2ccc(S(N)(=O)=O)cc2)cc1 (stereo not given)	inactive
COc1ccc(C2CC(C)=NN2c2ccc(S(N)(=O)=O)cc2)cc1 (stereo not given)	inactive
COc1ccc(-c2cc(CCC(=O)N3CCN(c4cc(C)ccc4C)CC3)[nH]n2)cc1	inactive
COc1ccc(C2=NN(c3ccc(S(N)(=O)=O)cc3)C(c3ccc(OC)cc3)C2)cc1 (stereo not given)	inactive
COc1ccc(C2CC(c3cccc(OC)c3)=NN2c2ccc(S(N)(=O)=O)cc2)cc1 (stereo not given)	inactive
COc1ccc(C2CC(c3cccc(C)c3)=NN2c2ccc(S(N)(=O)=O)cc2)cc1 (stereo not given)	inactive
COc1ccc(C2CC(c3ccc(Br)cc3)=NN2c2ccc(S(N)(=O)=O)cc2)cc1 (stereo not given)	inactive
COc1ccc(C2CC(c3cccs3)=NN2c2ccc(S(N)(=O)=O)cc2)cc1 (stereo not given)	inactive
COc1ccc(C2CC(c3cccc(C(F)(F)F)c3)=NN2c2ccc(S(N)(=O)=O)cc2)cc1 (stereo not given)	inactive
COc1ccc(C2CC(c3ccccc3OC)=NN2c2ccc(S(N)(=O)=O)cc2)cc1 (stereo not given)	inactive
COc1ccc(C2CC(C(C)(C)C)=NN2c2ccc(S(N)(=O)=O)cc2)cc1 (stereo not given)	inactive
NS(=O)(=O)c1ccc(N2N=C(c3ccccc3)CC2c2ccccc2Cl)cc1 (stereo not given)	inactive
COc1ccc(-c2ccc(CCC(=O)N3CCN(c4cc(C)ccc4C)CC3)s2)cc1	inactive
COc1ccc(C2CC(c3ccc(C(F)(F)F)cc3)=NN2c2ccc(S(N)(=O)=O)cc2)cc1 (stereo not given)	inactive
NS(=O)(=O)c1ccc(N2N=C(c3ccccc3)CC2c2ccccc2)cc1 (stereo not given)	inactive
COc1ccc(-c2ccc(CCC(=O)N3CCN(c4cc(C)ccc4C)CC3)[nH]2)cc1	inactive
NS(=O)(=O)c1ccc(N2N=C(c3ccccc3)CC2c2cccc(Br)c2)cc1 (stereo not given)	inactive
COc1cccc(C2CC(c3ccccc3)=NN2c2ccc(S(N)(=O)=O)cc2)c1 (stereo not given)	inactive
COc1ccc(C2CC(c3ccccc3)=NN2c2ccc(S(N)(=O)=O)cc2)cc1 (stereo not given)	inactive
COc1ccc(C2CC(c3ccc(N(C)C)cc3)=NN2c2ccc(S(N)(=O)=O)cc2)cc1 (stereo not given)	inactive
COc1ccc(-c2ccc(CCC(=O)N3CCN(c4cc(C)ccc4C)CC3)o2)cc1	inactive
COc1ccc(C2CC(c3ccc(C)cc3)=NN2c2ccc(S(N)(=O)=O)cc2)cc1 (stereo not given)	inactive

Biological target: Transforming protein RhoA (Homo sapiens) (UniProt P61586)
Assay: as above
Details: GST-GTPase beads, BODIPY-GTP binding, flow cytometry, RhoACT

EC50	SMILES
inactive	COc1ccc(-c2noc(CCC(=O)N3CCN(c4cc(C)ccc4C)CC3)n2)cc1
inactive	COc1cccc(C2CC(c3ccccc3)=NN2c2ccc(S(N)(=O)=O)cc2)c1 (stereo not given)

Same assay, conditions: GST-GTPase beads, BODIPY-GTP binding, flow cytometry, RhoACT, at 100 µM (top of the series)

GTP binding remaining (% of DMSO)	SMILES
inactive	COc1ccc(-c2noc(CCC(=O)N3CCC(c4cc(C)ccc4C)CC3)n2)cc1
inactive	COc1ccc(C2CC(c3ccsc3)=NN2c2ccc(S(N)(=O)=O)cc2)cc1 (stereo not given)
inactive	Cc1cccc(C2CC(c3ccccc3)=NN2c2ccc(S(N)(=O)=O)cc2)c1 (stereo not given)
inactive	COc1ccc(-c2cc(CCC(=O)N3CCN(c4cc(C)ccc4C)CC3)on2)cc1
inactive	Cc1ccccc1C1CC(c2ccccc2)=NN1c1ccc(S(N)(=O)=O)cc1 (stereo not given)
inactive	COc1ccc(C2CC(c3ccccc3C)=NN2c2ccc(S(N)(=O)=O)cc2)cc1 (stereo not given)
inactive	COc1ccc(C2CC(C)=NN2c2ccc(S(N)(=O)=O)cc2)cc1 (stereo not given)
inactive	COc1ccc(-c2cc(CCC(=O)N3CCN(c4cc(C)ccc4C)CC3)[nH]n2)cc1
inactive	COc1ccc(C2=NN(c3ccc(S(N)(=O)=O)cc3)C(c3ccc(OC)cc3)C2)cc1 (stereo not given)
inactive	COc1ccc(C2CC(c3cccc(OC)c3)=NN2c2ccc(S(N)(=O)=O)cc2)cc1 (stereo not given)
inactive	COc1ccc(C2CC(c3cccc(C)c3)=NN2c2ccc(S(N)(=O)=O)cc2)cc1 (stereo not given)
inactive	Cc1ccc(C2CC(c3ccccc3)=NN2c2ccc(S(N)(=O)=O)cc2)cc1 (stereo not given)
inactive	COc1ccc(C2CC(c3ccc(Br)cc3)=NN2c2ccc(S(N)(=O)=O)cc2)cc1 (stereo not given)
inactive	COc1ccc(C2CC(c3cccs3)=NN2c2ccc(S(N)(=O)=O)cc2)cc1 (stereo not given)
inactive	COc1ccc(C2CC(c3cccc(C(F)(F)F)c3)=NN2c2ccc(S(N)(=O)=O)cc2)cc1 (stereo not given)
inactive	NS(=O)(=O)c1ccc(N2N=C(c3ccccc3)CC2c2ccc(Cl)cc2)cc1 (stereo not given)
inactive	COc1ccc(C2CC(c3ccccc3OC)=NN2c2ccc(S(N)(=O)=O)cc2)cc1 (stereo not given)
inactive	COc1ccc(C2CC(C(C)(C)C)=NN2c2ccc(S(N)(=O)=O)cc2)cc1 (stereo not given)
inactive	NS(=O)(=O)c1ccc(N2N=C(c3ccccc3)CC2c2ccccc2Cl)cc1 (stereo not given)
inactive	COc1ccc(-c2ccc(CCC(=O)N3CCN(c4cc(C)ccc4C)CC3)s2)cc1
inactive	COc1ccc(C2CC(c3ccc(C(F)(F)F)cc3)=NN2c2ccc(S(N)(=O)=O)cc2)cc1 (stereo not given)
inactive	NS(=O)(=O)c1ccc(N2N=C(c3ccccc3)CC2c2ccccc2)cc1 (stereo not given)
inactive	COc1ccc(-c2ccc(CCC(=O)N3CCN(c4cc(C)ccc4C)CC3)[nH]2)cc1
inactive	NS(=O)(=O)c1ccc(N2N=C(c3ccccc3)CC2c2cccc(Br)c2)cc1 (stereo not given)
inactive	COc1ccc(C2CC(c3ccccc3)=NN2c2ccc(S(N)(=O)=O)cc2)cc1 (stereo not given)
inactive	COc1ccc(C2CC(c3ccc(N(C)C)cc3)=NN2c2ccc(S(N)(=O)=O)cc2)cc1 (stereo not given)
inactive	COc1ccc(-c2ccc(CCC(=O)N3CCN(c4cc(C)ccc4C)CC3)o2)cc1
inactive	COc1ccc(C2CC(c3ccc(C)cc3)=NN2c2ccc(S(N)(=O)=O)cc2)cc1 (stereo not given)

Same assay, conditions: GST-GTPase beads, BODIPY-GTP binding, flow cytometry, RhoWT

EC50	SMILES
inactive	COc1ccc(-c2noc(CCC(=O)N3CCC(c4cc(C)ccc4C)CC3)n2)cc1
1.3 µM	COc1ccc(-c2cc(CCC(=O)N3CCN(c4cc(C)ccc4C)CC3)on2)cc1
inactive	COc1ccc(-c2noc(CCC(=O)N3CCN(c4cc(C)ccc4C)CC3)n2)cc1

Same assay, conditions: GST-GTPase beads, BODIPY-GTP binding, flow cytometry, RhoWT, at 100 µM (top of the series)

GTP binding remaining (% of DMSO)	SMILES
inactive	COc1ccc(C2CC(c3ccsc3)=NN2c2ccc(S(N)(=O)=O)cc2)cc1 (stereo not given)
inactive	Cc1cccc(C2CC(c3ccccc3)=NN2c2ccc(S(N)(=O)=O)cc2)c1 (stereo not given)
inactive	Cc1ccccc1C1CC(c2ccccc2)=NN1c1ccc(S(N)(=O)=O)cc1 (stereo not given)
inactive	COc1ccc(C2CC(c3ccccc3C)=NN2c2ccc(S(N)(=O)=O)cc2)cc1 (stereo not given)
inactive	COc1ccc(C2CC(C)=NN2c2ccc(S(N)(=O)=O)cc2)cc1 (stereo not given)
inactive	COc1ccc(-c2cc(CCC(=O)N3CCN(c4cc(C)ccc4C)CC3)[nH]n2)cc1
inactive	COc1ccc(C2=NN(c3ccc(S(N)(=O)=O)cc3)C(c3ccc(OC)cc3)C2)cc1 (stereo not given)
inactive	COc1ccc(C2CC(c3cccc(OC)c3)=NN2c2ccc(S(N)(=O)=O)cc2)cc1 (stereo not given)
inactive	COc1ccc(C2CC(c3cccc(C)c3)=NN2c2ccc(S(N)(=O)=O)cc2)cc1 (stereo not given)
inactive	Cc1ccc(C2CC(c3ccccc3)=NN2c2ccc(S(N)(=O)=O)cc2)cc1 (stereo not given)
inactive	COc1ccc(C2CC(c3ccc(Br)cc3)=NN2c2ccc(S(N)(=O)=O)cc2)cc1 (stereo not given)
inactive	COc1ccc(C2CC(c3cccs3)=NN2c2ccc(S(N)(=O)=O)cc2)cc1 (stereo not given)
inactive	COc1ccc(C2CC(c3cccc(C(F)(F)F)c3)=NN2c2ccc(S(N)(=O)=O)cc2)cc1 (stereo not given)
inactive	NS(=O)(=O)c1ccc(N2N=C(c3ccccc3)CC2c2ccc(Cl)cc2)cc1 (stereo not given)
inactive	COc1ccc(C2CC(c3ccccc3OC)=NN2c2ccc(S(N)(=O)=O)cc2)cc1 (stereo not given)
inactive	COc1ccc(C2CC(C(C)(C)C)=NN2c2ccc(S(N)(=O)=O)cc2)cc1 (stereo not given)
inactive	NS(=O)(=O)c1ccc(N2N=C(c3ccccc3)CC2c2ccccc2Cl)cc1 (stereo not given)
inactive	COc1ccc(-c2ccc(CCC(=O)N3CCN(c4cc(C)ccc4C)CC3)s2)cc1
inactive	COc1ccc(C2CC(c3ccc(C(F)(F)F)cc3)=NN2c2ccc(S(N)(=O)=O)cc2)cc1 (stereo not given)
inactive	NS(=O)(=O)c1ccc(N2N=C(c3ccccc3)CC2c2ccccc2)cc1 (stereo not given)
inactive	COc1ccc(-c2ccc(CCC(=O)N3CCN(c4cc(C)ccc4C)CC3)[nH]2)cc1
inactive	NS(=O)(=O)c1ccc(N2N=C(c3ccccc3)CC2c2cccc(Br)c2)cc1 (stereo not given)
inactive	COc1cccc(C2CC(c3ccccc3)=NN2c2ccc(S(N)(=O)=O)cc2)c1 (stereo not given)
inactive	COc1ccc(C2CC(c3ccccc3)=NN2c2ccc(S(N)(=O)=O)cc2)cc1 (stereo not given)
inactive	COc1ccc(C2CC(c3ccc(N(C)C)cc3)=NN2c2ccc(S(N)(=O)=O)cc2)cc1 (stereo not given)
inactive	COc1ccc(-c2ccc(CCC(=O)N3CCN(c4cc(C)ccc4C)CC3)o2)cc1
inactive	COc1ccc(C2CC(c3ccc(C)cc3)=NN2c2ccc(S(N)(=O)=O)cc2)cc1 (stereo not given)
